± gives the expanded uncertainty stated by the source.
Conditions: Liquid; for mass density: Vibrating tube method; for thermal conductivity: Hot wire method

CCCC[n+]1ccccc1.F[B-](F)(F)F [1-butylpyridinium tetrafluoroborate]
Conditions | mass density, 293.15 K [kg/m3] | mass density, 303.15 K [kg/m3] | mass density, 313.15 K [kg/m3] | mass density, 323.15 K [kg/m3] | mass density, 333.15 K [kg/m3] | mass density, 343.15 K [kg/m3] | mass density, 353.15 K [kg/m3] | thermal conductivity, 294.2 K [W/m/K] | thermal conductivity, 314.3 K [W/m/K] | thermal conductivity, 334.3 K [W/m/K]
100 kPa | 1216.5 ± 5 | 1209.5 ± 5 | 1202.6 ± 4.9 | 1196 ± 4.9 | 1188.9 ± 4.9 | 1182 ± 4.9 | 1175.4 ± 4.8 | 0.171 ± 0.009 | 0.17 ± 0.009 | 0.169 ± 0.009
5000 kPa | 1219 ± 5 | 1211.9 ± 5 | 1205.1 ± 5 | 1198.5 ± 4.9 | 1191.4 ± 4.9 | 1184.5 ± 4.9 | 1177.9 ± 4.8 | – | – | –
10000 kPa | 1221.1 ± 5.1 | 1214.3 ± 5 | 1207.6 ± 5 | 1200.9 ± 5 | 1193.9 ± 4.9 | 1187 ± 4.9 | 1180.6 ± 4.9 | 0.171 ± 0.009 | 0.171 ± 0.009 | 0.171 ± 0.009
15000 kPa | 1223.4 ± 5.1 | 1216.4 ± 5 | 1209.9 ± 5 | 1203.2 ± 5 | 1196.4 ± 4.9 | 1189.5 ± 4.9 | 1183.3 ± 4.9 | – | – | –
20000 kPa | 1225.5 ± 5.1 | 1218.7 ± 5.1 | 1212 ± 5 | 1205.5 ± 5 | 1198.8 ± 5 | 1191.9 ± 4.9 | 1185.8 ± 4.9 | 0.173 ± 0.009 | 0.173 ± 0.009 | 0.172 ± 0.009

CCCCCC[n+]1ccccc1.F[B-](F)(F)F [1-hexylpyridinium tetrafluoroborate]
Conditions | mass density, 293.15 K [kg/m3] | mass density, 303.15 K [kg/m3] | mass density, 313.15 K [kg/m3] | mass density, 323.15 K [kg/m3] | mass density, 333.15 K [kg/m3] | mass density, 343.15 K [kg/m3] | mass density, 353.15 K [kg/m3] | thermal conductivity, 294.2 K [W/m/K] | thermal conductivity, 314.3 K [W/m/K] | thermal conductivity, 334.3 K [W/m/K]
100 kPa | 1157 ± 4.8 | 1150.3 ± 4.7 | 1143.5 ± 4.7 | 1137 ± 4.7 | 1130 ± 4.6 | 1123.4 ± 4.6 | 1116.8 ± 4.6 | 0.163 ± 0.009 | 0.163 ± 0.009 | 0.161 ± 0.008
5000 kPa | 1159.5 ± 4.8 | 1152.9 ± 4.7 | 1146.1 ± 4.7 | 1139.7 ± 4.7 | 1132.7 ± 4.6 | 1126 ± 4.6 | 1119.5 ± 4.6 | – | – | –
10000 kPa | 1161.8 ± 4.8 | 1155.3 ± 4.8 | 1148.7 ± 4.7 | 1142.2 ± 4.7 | 1135.2 ± 4.7 | 1128.7 ± 4.6 | 1122.3 ± 4.6 | 0.165 ± 0.009 | 0.163 ± 0.009 | 0.162 ± 0.009
15000 kPa | 1164.1 ± 4.8 | 1157.6 ± 4.8 | 1151.1 ± 4.7 | 1144.5 ± 4.7 | 1137.8 ± 4.7 | 1131.2 ± 4.7 | 1125 ± 4.6 | – | – | –
20000 kPa | 1166.5 ± 4.8 | 1159.9 ± 4.8 | 1153.4 ± 4.8 | 1146.9 ± 4.7 | 1140.3 ± 4.7 | 1133.8 ± 4.7 | 1127.6 ± 4.6 | 0.166 ± 0.009 | 0.164 ± 0.009 | 0.163 ± 0.009

CCCCCCCC[n+]1ccccc1.F[B-](F)(F)F [1-octylpyridinium tetrafluoroborate]
Conditions | mass density, 293.15 K [kg/m3] | mass density, 303.15 K [kg/m3] | mass density, 313.15 K [kg/m3] | mass density, 323.15 K [kg/m3] | mass density, 333.15 K [kg/m3] | mass density, 343.15 K [kg/m3] | mass density, 353.15 K [kg/m3] | thermal conductivity, 294.2 K [W/m/K] | thermal conductivity, 314.3 K [W/m/K] | thermal conductivity, 334.3 K [W/m/K]
100 kPa | 1111.2 ± 4.6 | 1104.4 ± 4.5 | 1097.6 ± 4.5 | 1091.1 ± 4.5 | 1084.4 ± 4.4 | 1077.9 ± 4.4 | 1071.6 ± 4.4 | 0.16 ± 0.008 | 0.16 ± 0.008 | 0.158 ± 0.008
5000 kPa | 1113.8 ± 4.6 | 1107.1 ± 4.5 | 1100.3 ± 4.5 | 1093.9 ± 4.5 | 1087.1 ± 4.5 | 1080.7 ± 4.4 | 1074.4 ± 4.4 | – | – | –
10000 kPa | 1116.2 ± 4.6 | 1109.6 ± 4.6 | 1103 ± 4.5 | 1096.6 ± 4.5 | 1089.9 ± 4.5 | 1083.6 ± 4.4 | 1077.3 ± 4.4 | 0.163 ± 0.009 | 0.161 ± 0.008 | 0.159 ± 0.008
15000 kPa | 1118.6 ± 4.6 | 1112.1 ± 4.6 | 1105.4 ± 4.5 | 1099 ± 4.5 | 1092.6 ± 4.5 | 1086.2 ± 4.5 | 1080.1 ± 4.4 | – | – | –
20000 kPa | 1120.9 ± 4.6 | 1114.4 ± 4.6 | 1107.8 ± 4.6 | 1101.5 ± 4.5 | 1095.2 ± 4.5 | 1089 ± 4.5 | 1083 ± 4.4 | 0.165 ± 0.009 | 0.164 ± 0.009 | 0.161 ± 0.008

Reference: the NIST ThermoML archive (doi:10.1016/j.fluid.2012.12.008)
